Experimental findings from patent publication US20120270237A9, “METHODS FOR THE IDENTIFICATION OF KINASE INTERACTING MOLECULES AND FOR THE PURIFICATION OF KINASE PROTEINS” (Cellzone AG, priority 2009, published 2012) are described below.

For the test, the target named is T1, MAP3K5 (Homo sapiens, UniProt Q99683).
T1 sequence (Q99683 1-1374): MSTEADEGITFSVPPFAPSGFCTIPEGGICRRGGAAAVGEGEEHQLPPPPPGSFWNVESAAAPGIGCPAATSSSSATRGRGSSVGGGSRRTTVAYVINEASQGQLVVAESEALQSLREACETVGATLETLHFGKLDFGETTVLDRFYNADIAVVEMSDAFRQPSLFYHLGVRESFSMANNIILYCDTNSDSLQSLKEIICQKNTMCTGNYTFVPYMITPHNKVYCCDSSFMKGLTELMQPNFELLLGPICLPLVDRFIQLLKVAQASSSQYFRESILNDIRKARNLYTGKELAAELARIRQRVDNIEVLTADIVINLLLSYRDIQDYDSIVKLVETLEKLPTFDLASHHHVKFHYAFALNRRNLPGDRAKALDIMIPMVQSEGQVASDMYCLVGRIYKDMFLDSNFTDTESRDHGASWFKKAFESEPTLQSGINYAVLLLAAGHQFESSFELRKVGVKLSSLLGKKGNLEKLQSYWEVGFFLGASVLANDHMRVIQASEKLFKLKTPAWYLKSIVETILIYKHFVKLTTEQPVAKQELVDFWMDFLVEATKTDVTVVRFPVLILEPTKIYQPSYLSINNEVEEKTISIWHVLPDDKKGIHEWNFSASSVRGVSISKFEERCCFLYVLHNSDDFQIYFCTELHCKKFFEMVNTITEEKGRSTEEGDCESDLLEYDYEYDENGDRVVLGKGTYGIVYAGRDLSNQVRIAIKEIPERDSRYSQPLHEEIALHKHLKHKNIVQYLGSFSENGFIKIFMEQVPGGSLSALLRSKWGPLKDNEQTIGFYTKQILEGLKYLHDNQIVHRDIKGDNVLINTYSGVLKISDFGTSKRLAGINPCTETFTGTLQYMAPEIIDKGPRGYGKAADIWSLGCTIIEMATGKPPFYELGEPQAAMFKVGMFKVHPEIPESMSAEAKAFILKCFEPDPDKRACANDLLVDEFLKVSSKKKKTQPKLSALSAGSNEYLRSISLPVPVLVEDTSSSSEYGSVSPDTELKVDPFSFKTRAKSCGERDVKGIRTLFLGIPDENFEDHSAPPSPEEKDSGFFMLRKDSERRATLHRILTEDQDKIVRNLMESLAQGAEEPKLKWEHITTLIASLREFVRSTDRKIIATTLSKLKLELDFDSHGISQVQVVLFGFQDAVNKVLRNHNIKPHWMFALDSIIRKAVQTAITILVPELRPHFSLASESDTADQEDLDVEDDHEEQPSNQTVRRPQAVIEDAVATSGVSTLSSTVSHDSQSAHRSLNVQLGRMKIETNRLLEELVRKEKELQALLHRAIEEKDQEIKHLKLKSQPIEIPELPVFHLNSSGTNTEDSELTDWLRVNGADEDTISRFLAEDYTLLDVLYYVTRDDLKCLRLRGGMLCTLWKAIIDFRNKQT
Kind of test: Kinobeads competition binding, HL60 cell lysate. Set-up: endogenous in cells; host or cells: HL60 cell lysate. Particulars: 10 μM free compound. As to the method:
To one aliquot of cell lysate 10 μM of the free compound (FIG. 3, CZC31326) was added and allowed to bind to proteins in the lysate. Then the affinity matrix with the immobilized compound (Example 1) was added to capture proteins that were not interacting with the previously added free compound. Beads were separated from the lysate and bead bound proteins were eluted in SDS sample buffer and subsequently separated by SDS-Polyacrylamide gel electrophoresis (FIG. 4). Suitable gel bands were cut out and subjected to in-gel proteolytic digestion with trypsin. The second lysate aliquot was processed identically, however no free compound was added (DMSO solvent control). Peptides originating from samples 1 and 2 were labeled with iTRAQ reagents (iTRAQ 114 and iTRAQ 117) and the combined samples were analyzed with a nano-flow liquid chromatography system coupled online to a tandem mass spectrometer (LC-MS/MS) experiment followed by iTRAQ reporter ion quantification in the MS/MS spectra (Ross et al., 2004. Mol. Cell. Proteomics 3(12):1154-1169). Further experimental protocols can be found in WO2006/134056 and a previous publication (Bantscheff et al., 2007. Nature Biotechnology 25, 1035-1044). Sepharose-beads with the immobilized compound (100 μl beads per pull-down experiment) were equilibrated in lysis buffer and incubated with a cell lysate sample containing 50 mg of protein on an end-over-end shaker (Roto Shake Genie, Scientific Industries Inc.) for 2 hours at 4° C. […] The iTRAQ reagents are a set of multiplexed, amine-specific, stable isotope reagents that can label peptides on amino groups in up to four different biological samples enabling simultaneous identification and quantitation of peptides. […] Relative protein quantitation was performed using peak areas of iTRAQ reporter ion signals essentially as described in an earlier publication (Bantscheff et al., 2007. Nature Biotechnology 25, 1035-1044).

Broadly, the inhibition is the percentage by which the read-out fell short of the control. A higher inhibition goes with strong suppression. `CS(=O)(=O)Nc1ccccc1Nc1nc(Nc2cccc(OCCN)c2)ncc1Cl` [CZC31326, N-(2-(2-(3-(2-aminoethoxy)phenylamino)-5-chloropyrimidin-4-ylamino)phenyl)methanesulfonamide]: the inhibition at 10 µM was 88.4%.
